Source: patent US9844536B2, “3-(1H-imidazo[4,5-C]pyridin-2-yl)-1H-pyrazolo[3,4-C]pyridine and therapeutic uses thereof” (Samumed, LLC, priority 2014, dated 2017)

Assays:
[1] = system: Wnt pathway (Sp5-Luc reporter, SW480 cells); experiment: Sp5-Luc reporter gene screening assay for Wnt activity in SW480 colon carcinoma cells; format: cell-based; details: Homo sapiens
Method in brief: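 IC50 values come from variable-slope four-parameter fits of luciferase signal normalized to DMSO wells. Stable Sp5-Luc reporter SW480 colon carcinoma cells were exposed to compounds in a 3-fold dilution series (source plates from 10 mM stock) for forty-two hours at 37 °C.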

[2] = system: LL29 cells; experiment: Inhibition of the fibrotic process (αSMA staining) in TGF-β1 treated primary human fibroblasts from IPF patients; format: cell-based; details: Fibroblast, 96 h, TGF-β1 20 ng/mL, 4 days, dose-response 10 μM to 1.87 nM, read-out: Inhibition of fibrosis EC50
Description: The above synthesized compounds were screened using primary human fibroblasts (derived from IPF patients) treated with TGF-β1 to determine their ability to inhibit the fibrotic process.
Primary human fibroblasts derived from IPF patients (LL29 cells) [^1Xiaoqiu Liu, et. al., “Fibrotic Lung Fibroblasts Show Blunted Inhibition by cAMP Due to Deficient cAMP Response Element-Binding Protein Phosphorylation”, Journal of Pharmacology and Experimental Therapeutics (2005), 315(2), 678-687; ^2Watts, K. L., et. al., “RhoA signaling modulates cyclin D1 expression in human lung fibroblasts; implications for idiopathic pulmonary fibrosis”, Respiratory Research (2006), 7(1), 88] were obtained from American Type Culture Collection (ATCC) and expanded in F12 medium supplemented with 15% Fetal Bovine Serum and Penicillin/Streptomycin.
Each compound was dissolved in DMSO as a 10 mM stock and used to prepare compound source plates. Serial dilution (1:2, 11-point dose-response curves from 10 μM to 1.87 nM) and compound transfer was performed using the ECHO 550 (Labcyte, Sunnyvale, Calif.) into 384-well clear bottom assay plates (Greiner Bio-One) with appropriate DMSO backfill for a final DMSO concentration of 0.1%. LL29 cells were plated at 1,500 cells/well in 80 μl/well F12 medium supplemented with 1% Fetal Bovine Serum. One hour after addition of the cells, TGF-β1 (Peprotech; 20 ng/mL) was added to the plates to induce fibrosis (ref. 1 and 2 above). Wells treated with TGF-β1 and containing DMSO were used as controls. Cells were incubated at 37° C. and 5% CO2 for 4 days. Following incubation for 4 days, SYTOX green nucleic acid stain (Life Technologies [Thermo Fisher Scientific]) was added to the wells at a final concentration of 1 uM and incubated at room temperature for 30 min. Cells were then fixed using 4% formaldehyde (Electron Microscopy Sciences), washed 3 times with PBS followed by blocking and permeabilization using 3% Bovine Serum Albumin (BSA; Sigma) and 0.3% Triton X-100 (Sigma) in PBS. Cells were then stained with antibody specific to α-smooth muscle actin (αSMA; Abcam) (ref. 1 and 2 above) in 3% Bovine Serum Albumin (BSA; Sigma) and 0.3% Triton X-100 (Sigma) in PBS, and incubated overnight at 4° C. Cells were then washed 3 times with PBS, followed by incubation with Alexa Flor-647 conjugated secondary antibody (Life Technologies [Thermo Fisher Scientific]) and DAPI at room temperature for 1 hour. Cells were then washed 3 times with PBS and plates were sealed for imaging. αSMA staining was imaged by excitation at 630 nm and emission at 665 nm and quantified using the Compartmental Analysis program on the CellInsight CX5 (Thermo Scientific). Dead or apoptotic cells were excluded from analysis based on positive SYTOX green staining. % of total cells positive for αSMA were counted in each well and normalized to the average of 11 wells treated with TGF-31 on the same plate using Dotmatics' Studies Software. The normalized averages (fold change over untreated) of 3 replicate wells for each compound concentration were used to create dose-responses curves and EC50 values were calculated using non-linear regression curve fit in the Dotmatics' Studies Software. The EC50 values are reported.

Compound	IC50 [1]	EC50 [2]
CCNCc1cncc(-c2cc3c(-c4nc5c(-c6ccoc6)nccc5[nH]4)n[nH]c3cn2)c1 [Compound 292, N-((5-(3-(4-(Furan-3-yl)-1H-imidazo[4,5-c]pyridin-2-yl)-1H-pyrazolo[3,4-c]pyridin-5-yl)pyridin-3-yl)methyl)ethanamine]	80.4 nM	≤ 9 nM
CCCCC(=O)Nc1cncc(-c2cc3c(-c4nc5c(-c6ccoc6)nccc5[nH]4)n[nH]c3cn2)c1 [Compound 304, N-(5-(3-(4-(Furan-3-yl)-1H-imidazo[4,5-c]pyridin-2-yl)-1H-pyrazolo[3,4-c]pyridin-5-yl)pyridin-3-yl)pentanamide]	64 nM	≥ 9990 nM
c1cc2[nH]c(-c3n[nH]c4cnc(-c5cncc(CNCC6CCCC6)c5)cc34)nc2c(-c2ccoc2)n1 [Compound 310, 1-Cyclopentyl-N-((5-(3-(4-(furan-3-yl)-1H-imidazo[4,5-c]pyridin-2-yl)-1H-pyrazolo[3,4-c]pyridin-5-yl)pyridin-3-yl)methyl)methanamine]	396 nM	> 10000 nM
CN(C)c1cncc(-c2cc3c(-c4nc5c(-c6cccs6)nccc5[nH]4)n[nH]c3cn2)c1 [Compound 319, N,N-Dimethyl-5-(3-(4-(thiophen-2-yl)-1H-imidazo[4,5-c]pyridin-2-yl)-1H-pyrazolo[3,4-c]pyridin-5-yl)pyridin-3-amine]	53.4 nM	≤ 9 nM
CN(C)Cc1cncc(-c2cc3c(-c4nc5c(-c6cccs6)nccc5[nH]4)n[nH]c3cn2)c1 [Compound 325, N,N-Dimethyl-1-(5-(3-(4-(thiophen-2-yl)-1H-imidazo[4,5-c]pyridin-2-yl)-1H-pyrazolo[3,4-c]pyridin-5-yl)pyridin-3-yl)methanamine]	> 10000 nM	≤ 9 nM
CCCC(=O)Nc1cncc(-c2cc3c(-c4nc5c(-c6cccs6)nccc5[nH]4)n[nH]c3cn2)c1 [Compound 329, N-(5-(3-(4-(Thiophen-2-yl)-1H-imidazo[4,5-c]pyridin-2-yl)-1H-pyrazolo[3,4-c]pyridin-5-yl)pyridin-3-yl)butyramide]	17.3 nM	≥ 9990 nM
FC1(F)CCN(Cc2cncc(-c3cc4c(-c5nc6c(-c7cccs7)nccc6[nH]5)n[nH]c4cn3)c2)C1 [Compound 337, 5-(5-((3,3-Difluoropyrrolidin-1-yl)methyl)pyridin-3-yl)-3-(4-(thiophen-2-yl)-1H-imidazo[4,5-c]pyridin-2-yl)-1H-pyrazolo[3,4-c]pyridine]	15.2 nM	≤ 9 nM
CC(C)CC(=O)Nc1cncc(-c2cc3c(-c4nc5c(-c6ccc(F)s6)nccc5[nH]4)n[nH]c3cn2)c1 [Compound 340, N-(5-(3-(4-(5-Fluorothiophen-2-yl)-1H-imidazo[4,5-c]pyridin-2-yl)-1H-pyrazolo[3,4-c]pyridin-5-yl)pyridin-3-yl)-3-methylbutanamide]	31.7 nM	306 nM
Fc1ccc(-c2nccc3[nH]c(-c4n[nH]c5cnc(-c6cncc(CN7CCCC7)c6)cc45)nc23)s1 [Compound 352, 3-(4-(5-Fluorothiophen-2-yl)-1H-imidazo[4,5-c]pyridin-2-yl)-5-(5-(pyrrolidin-1-ylmethyl)pyridin-3-yl)-1H-pyrazolo[3,4-c]pyridine]	100 nM	≥ 9990 nM
O=C(Nc1cncc(-c2cc3c(-c4nc5c(-c6ccc(F)s6)nccc5[nH]4)n[nH]c3cn2)c1)C1CCC1 [Compound 358, N-(5-(3-(4-(5-Fluorothiophen-2-yl)-1H-imidazo[4,5-c]pyridin-2-yl)-1H-pyrazolo[3,4-c]pyridin-5-yl)pyridin-3-yl)cyclobutanecarboxamide]	13.7 nM	40 nM
CCNCc1cncc(-c2cc3c(-c4nc5c(-c6ccc(C)s6)nccc5[nH]4)n[nH]c3cn2)c1 [Compound 370, N-((5-(3-(4-(5-Methylthiophen-2-yl)-1H-imidazo[4,5-c]pyridin-2-yl)-1H-pyrazolo[3,4-c]pyridin-5-yl)pyridin-3-yl)methyl)ethanamine]	39.1 nM	578 nM
